Patent US9956229B2, “Acyclic cucurbit[n]uril type molecular containers to treat intoxication and decrease relapse rate in substance abuse disorders” (UNIVERSITY OF MARYLAND, COLLEGE PARK, priority 2014, dated 2018)

What was measured:
[1] = Direct 1H NMR titration, 1:1 binding model; conditions: 20 mM NaH2PO4 buffered (pH 7.4) D2O
Procedure: A direct titration was performed between the host and guest. The concentration of the host was kept constant while varying the concentration of the guest and the change in chemical shift of a selected host signal was measured. The change in chemical shift as a function of guest concentration was fitted to a 1:1 binding model to determine the Ka. In some cases, the concentration of guest was fixed and host concentration was varied, depending on the availability of a suitable ^1H NMR peak whose chemical shift change could be easily monitored.
1:1 Binding Model for NMR

ketamine anesthesia = test: EEG power and mean arterial pressure during continuous ketamine infusion; assay type: in vivo, rat; conditions: escalating phenylephrine infusion 4 to 10 μg/kg/min; n=3

| SMILES | Binding Constant with Host (Ka), morphine [1] | Binding Constant with Host (Ka), cocaine ([1]; 1:1 model) | Binding Constant with Host (Ka), ketamine ([1]; 1:1 model) | Binding Constant with Host (Ka), methamphetamine ([1]; 1:1 model) | Binding Constant with Host (Ka), phencyclidine ([1]; 1:1 model) | Binding Constant with Host (Ka), ketamine ([1]; 1:1 model, listed as 4-suldo calix[4]arene) | effect on MAP and EEG power during steady state shallow ketamine anesthesia (ketamine anesthesia) |
| --- | --- | --- | --- | --- | --- | --- | --- |
| O=S(=O)(O)c1cc2c(O)c(c1)Cc1cc(S(=O)(=O)O)cc(c1O)Cc1cc(S(=O)(=O)O)cc(c1O)Cc1cc(S(=O)(=O)O)cc(c1O)C2 [4-sulfo calix[4]arene] | (4.9±0.3)×10^4 M^−1 | (4.3±1.5)×10^4 M^−1 | ~10^5 M^−1 | (3.8±0.6)×10^4 M^−1 | (5.0±0.6)×10^4 M^−1 | ~10^5 M^−1 |  |
| O=C1N2CN3C(=O)N4CN5C(=O)N6CN7C(=O)N8CN9C(=O)N%10CN%11C(=O)N%12CN%13C(=O)N%14CN1C1C2N2CN%15C(=O)N(CN%16C(=O)N(CN%17C(=O)N(CN%18C(=O)N(CN%19C(=O)N(CN%20C(=O)N(CN1C2=O)C%14C%13%20)C%12C%11%19)C%10C9%18)C8C7%17)C6C5%16)C4C3%15 (centres unmarked) [CB[7], cucurbit[7]uril] | <10^3 M^−1 |  |  |  |  |  |  |
| CNC[C@H](O)c1cccc(O)c1 [phenylephrine] |  |  |  |  |  |  | significant MAP increases without effects on EEG power |
